≈ marks a conversion by molar mass, not a printed value. Read-outs that look alike come from different tables or passages of the source.
How the values were obtained:
[1] = system: Methicillin resistant S. aureus IBRS MRSA 011; test: Antimicrobial microdilution assay (MIC/MBC); assay type: cell-based, Staphylococcus aureus
Procedure: (§1) The bacterial suspension (0.5 Mc Farland) was prepared, and twenty-fold dilutions of these suspensions were mixed in a 1:10 ratio with the corresponding polyphenol dilution (0.0039–1 mg/mL). Microtiter plates were incubated at 37 °C for 24 h. The lowest concentrations without visible growth (under a binocular microscope) were defined as MICs. The bactericidal concentrations (MBCs) were determined by serial subcultivation of 2 μL of the well’s content and further incubation for 24 h at 37 °C. Streptomycin (SigmaAldrich, Darmstadt, Germany) was used as a positive control. The polyphenols were obtained from Extrasynthese, Rhone, France (rutin, isoquercitrin) and SigmaAldrich, Germany (hesperetin, hesperidin, naringenin, naringin, taxifolin, morin, chlorogenic acid, ferulic acid, p-coumaric acid, and gallic acid). The stock compounds were prepared in ethanol (30%), and adequate ethanol concentrations were used as the negative control in the assays. Experiments were done in triplicate.

S. infantis 1371/1 = test: Antimicrobial microdilution assay (MIC/MBC); assay type: cell-based, Salmonella Infantis; conditions: Salmonella enterica, 1371/1; for MIC: 37 °C, 24 h, read-out: MIC; for MBC: subcultivation, 24 h at 37 °C, read-out: MBC
Procedure: as §1

P. aeruginosa MMA83 = test: Antimicrobial microdilution assay (MIC/MBC); assay type: cell-based, Pseudomonas aeruginosa; conditions: for MIC: 37 °C, 24 h, read-out: MIC; for MBC: subcultivation, 24 h at 37 °C
Procedure: as §1

P. aeruginosa IBRS P001 = test: Antimicrobial microdilution assay (MIC/MBC); assay type: cell-based, Pseudomonas aeruginosa; conditions: Pseudomonas aeruginosa, IBRSP001; for MIC: 37 °C, 24 h, read-out: MIC; for MBC: subcultivation, 24 h at 37 °C, read-out: MBC
Procedure: as §1

E. coli IMD989 = test: Antimicrobial microdilution assay (MIC/MBC); assay type: cell-based, Escherichia coli; conditions: Escherichia coli, IMD989; for MIC: 37 °C, 24 h, read-out: MIC; for MBC: subcultivation, 24 h at 37 °C, read-out: MBC
Procedure: as §1

E. coli IBRS E003 = test: Antimicrobial microdilution assay (MIC/MBC); assay type: cell-based, Escherichia coli; conditions: Escherichia coli, IBRSE003; for MIC: 37 °C, 24 h, read-out: MIC; for MBC: subcultivation, 24 h at 37 °C, read-out: MBC
Procedure: as §1

K. pneumoniae Ni9 = test: Antimicrobial microdilution assay (MIC/MBC); assay type: cell-based, Klebsiella pneumoniae; conditions: Klebsiella pneumoniae, NI9; for MIC: read-out: MIC; for MBC: subcultivation, 24 h at 37 °C, read-out: MBC
Procedure: as §1

K. pneumoniae IT977 = test: Antimicrobial microdilution assay (MIC/MBC); assay type: cell-based, Klebsiella pneumoniae; conditions: Klebsiella pneumoniae, IT977; for MIC: read-out: MIC; for MBC: subcultivation, 24 h at 37 °C, read-out: MBC
Procedure: as §1

A. xylosoxidans 37F = test: Antimicrobial microdilution assay (MIC/MBC); assay type: cell-based, Achromobacter xylosoxidans; conditions: Achromobacter xylosoxidans, 37F; for MIC: 37 °C, 24 h, read-out: MIC; for MBC: subcultivation, 24 h at 37 °C, read-out: MBC
Procedure: as §1

A. baumannii S2/2 = test: Antimicrobial microdilution assay (MIC/MBC); assay type: cell-based, Acinetobacter baumannii; conditions: Acinetobacter baumannii, S2/2; for MIC: 37 °C, 24 h, read-out: MIC; for MBC: subcultivation, 24 h at 37 °C, read-out: MBC
Procedure: as §1

A. baumannii 6077/12 = test: Antimicrobial microdilution assay (MIC/MBC); assay type: cell-based, Acinetobacter baumannii; conditions: Acinetobacter baumannii, 6077/12; for MIC: 37 °C, 24 h, read-out: MIC; for MBC: subcultivation, 24 h at 37 °C, read-out: MBC
Procedure: as §1

HaCaT cells = test: Cytotoxicity in HaCaT cell line (crystal violet assay); assay type: cell-based, human; conditions: HaCaT; for IC50: Homo sapiens, 24 h treatment, crystal violet, read-out: IC50 (compound concentration that inhibited 50% of the cell growth)
Procedure: For determination of the polyphenols’ cytotoxic effect, a crystal violet assay was used, with modifications. The cytotoxic effect of polyphenols was analyzed on spontaneously immortalized human skin keratinocytes (HaCaT, AddexBio No. T0020001, San Diego, CA, USA) cell lines. […] Cells (1 × 10^4 cells/well) were seeded in a 96-well plate (Sarstedt, Nümbrecht, Germany) 24 h before treatment. […] Cells were incubated with the compounds for 24 h. […] After crystal violet was removed, the plates were washed in a stream of tap water and left to air-dry at room temperature for 24 h. The absorbance was measured in a microplate reader (Multiskan™ FC Microplate Photometer, Thermo Scientific™) at 590 nm. The results were expressed as IC50 value in μg/mL. The criterion used to categorize the cytotoxic activity polyphenols was as follows: […] All analyses were performed in triplicate; each replicate was also quantified three times. Data were expressed as mean standard deviation, where applicable.

P. aeruginosa MTCC 2488 = system: P. aeruginosa MTCC 2488; design: method as in PMID 32057619; conditions: cited from earlier work
[2] = system: P. aeruginosa IBRS P001 biofilm; test: Crystal violet antibiofilm assay (biofilm formation); assay type: cell-based, Pseudomonas aeruginosa; conditions: MIC and sub-MIC, 24 h, crystal violet, Figure 1
Procedure: After incubation, each well was washed twice with sterile PBS (phosphate-buffered saline, pH 7.4) and fixed with methanol for 10 min. After removal of methanol the plate was air-dried. The biofilm was stained with 0.1% crystal violet (Bio-Merieux, Marcy l’Etoile, France) for 30 min. The plate was washed with water, air dried, and the stain was dissolved with 200 μL of 96% ethanol (Zorka, Sabac, Serbia). The absorbance was read at 620 nm on a Multiskan™ FC microplate photometer (Thermo Scientific™, Waltham, MA, USA). The results are presented as biofilm forming capacity (%) compared to control.

[3] = system: E. coli (fluoroquinolones and ampicillin-resistant); design: method as in A previous investigation; conditions: ref A previous investigation; cited from earlier work
[4] = Staphylococcus aureus, MRSA, 24 h
[5] = Pseudomonas aeruginosa, MMA83, read-out: MBC
[6] = Staphylococcus aureus, MRSA, 37 °C, 24 h, read-out: MIC
[7] = Staphylococcus aureus, MRSA, subcultivation, 24 h at 37 °C, read-out: MBC
[8] = restated in the discussion for two strains examined

Structure (SMILES)	MIC (S. infantis 1371/1) [µg/mL]	MBC (S. infantis 1371/1) [µg/mL]	MIC (P. aeruginosa MMA83; Pseudomonas aeruginosa, MMA83) [µg/mL]	MBC (P. aeruginosa MMA83; [5]) [µg/mL]	MIC (P. aeruginosa IBRS P001) [µg/mL]	MBC (P. aeruginosa IBRS P001) [µg/mL]	MIC (E. coli IMD989) [µg/mL]	MBC (E. coli IMD989) [µg/mL]	MIC (E. coli IBRS E003) [µg/mL]	MBC (E. coli IBRS E003) [µg/mL]	MIC (K. pneumoniae Ni9; 37 °C, 24 h) [µg/mL]	MBC (K. pneumoniae Ni9) [µg/mL]	MIC (K. pneumoniae IT977; 37 °C, 24 h) [µg/mL]	MBC (K. pneumoniae IT977) [µg/mL]	MIC (A. xylosoxidans 37F) [µg/mL]	MBC (A. xylosoxidans 37F) [µg/mL]	MIC (A. baumannii S2/2) [µg/mL]	MBC (A. baumannii S2/2) [µg/mL]	MIC (A. baumannii 6077/12) [µg/mL]	MBC (A. baumannii 6077/12) [µg/mL]	other results
[H]/N=C(/N)N[C@H]1[C@H](O)[C@@H](O)[C@H](O[C@@H]2O[C@@H](C)[C@](O)(C=O)[C@H]2O[C@@H]2O[C@@H](CO)[C@H](O)[C@@H](O)[C@@H]2NC)[C@@H](N/C(N)=N\[H])[C@@H]1O [Streptomycin, reference compound]	> 1000	> 1000	> 1000	> 1000	50 (≈ 86 µM)	100 (≈ 172 µM)	1000 (≈ 1720 µM)	> 1000	100 (≈ 172 µM)	200 (≈ 344 µM)	> 1000	> 1000	> 1000	> 1000	> 1000	> 1000	> 1000	> 1000	> 1000	> 1000	MBC [1, 4]: 800 µg/mL (≈ 1380 µM); MIC [1, 4]: 100 µg/mL (≈ 172 µM)
O=C1C[C@@H](c2ccc(O)cc2)Oc2cc(O)cc(O)c21 [Naringenin, naringenin]	> 1000	> 1000	1000 (≈ 3670 µM)	1000 (≈ 3670 µM)	250 (≈ 918 µM)	500 (≈ 1840 µM)	1000 (≈ 3670 µM)	> 1000	500 (≈ 1840 µM)	1000 (≈ 3670 µM)	250 (≈ 918 µM)	500 (≈ 1840 µM)	1000 (≈ 3670 µM)	1000 (≈ 3670 µM)	1000 (≈ 3670 µM)	1000 (≈ 3670 µM)	500 (≈ 1840 µM)	500 (≈ 1840 µM)	500 (≈ 1840 µM)	500 (≈ 1840 µM)	MIC ([1]; 37 °C, 24 h): 250 µg/mL (≈ 918 µM); MIC [1, 6]: 250 µg/mL (≈ 918 µM); MBC [1, 7]: 500 µg/mL (≈ 1840 µM); IC50 (HaCaT cells): 528 ± 47 µg/mL (≈ 1940 µM)
O=C(/C=C/c1ccc(O)c(O)c1)O[C@@H]1C[C@](O)(C(=O)O)C[C@@H](O)[C@H]1O [Chlorogenic Acid, chlorogenic acid]	> 1000	> 1000	1000 (≈ 2820 µM)	> 1000	500 (≈ 1410 µM)	1000 (≈ 2820 µM)	> 1000	> 1000	> 1000	> 1000	> 1000	> 1000	> 1000	> 1000	1000 (≈ 2820 µM)	> 1000	1000 (≈ 2820 µM)	> 1000	1000 (≈ 2820 µM)	1000 (≈ 2820 µM)	MBC [1, 4]: 1000 µg/mL (≈ 2820 µM); MIC [1, 4]: 500 µg/mL (≈ 1410 µM); IC50 (HaCaT cells): 279 ± 8 µg/mL (≈ 787 µM); MIC (K. pneumoniae Ni9; [8]): > 1000 µg/mL; MIC (K. pneumoniae IT977; [8]): > 1000 µg/mL
C[C@@H]1O[C@@H](O[C@H]2[C@H](Oc3cc(O)c4c(c3)O[C@H](c3ccc(O)cc3)CC4=O)O[C@H](CO)[C@@H](O)[C@@H]2O)[C@H](O)[C@H](O)[C@H]1O [Naringin, naringin]	> 1000	> 1000	> 1000	> 1000	250 (≈ 431 µM)	500 (≈ 861 µM)	> 1000	> 1000	> 1000	> 1000	> 1000	> 1000	> 1000	> 1000	> 1000	> 1000	> 1000	> 1000	> 1000	> 1000	Bactericidal concentration (P. aeruginosa MTCC 2488): 1.4 mg/mL; IC50 (P. aeruginosa MTCC 2488): 570 µg/mL (≈ 982 µM); MIC [1, 6]: 500 µg/mL (≈ 861 µM); MBC [1, 7]: 1000 µg/mL (≈ 1720 µM); IC50 (HaCaT cells): > 1000 µg/mL; MBC (P. aeruginosa MMA83): >1000 µg/mL; reduction of biofilm formation (biomass), in words [2]: not significantly altered
O=C(O)/C=C/c1ccc(O)cc1 [p-Coumaric Acid, p-coumaric acid]	1000 (≈ 6090 µM)	1000 (≈ 6090 µM)	500 (≈ 3050 µM)	1000 (≈ 6090 µM)	500 (≈ 3050 µM)	1000 (≈ 6090 µM)	1000 (≈ 6090 µM)	1000 (≈ 6090 µM)	> 1000	> 1000	1000 (≈ 6090 µM)	1000 (≈ 6090 µM)	1000 (≈ 6090 µM)	1000 (≈ 6090 µM)	1000 (≈ 6090 µM)	1000 (≈ 6090 µM)	500 (≈ 3050 µM)	500 (≈ 3050 µM)	500 (≈ 3050 µM)	500 (≈ 3050 µM)	MIC [1, 6]: 500 µg/mL (≈ 3050 µM); MBC [1, 7]: 1000 µg/mL (≈ 6090 µM); cytotoxicity category (HaCaT cells; maximal tested concentrations (1 mg/mL)): no cytotoxicity (IC50 > 501 µg/mL = no cytotoxicity); IC50 (HaCaT cells): > 1000 µg/mL; MIC [3]: 1000 µg/mL (≈ 6090 µM)

Reference: publication PMC8952364, “Polyphenols as Inhibitors of Antibiotic Resistant Bacteria—Mechanisms Underlying Rutin Interference with Bacterial Virulence” (Pharmaceuticals, 2022)
